Reference: ChEMBL document CHEMBL6109084 (Eur J Med Chem, 2025)

test system: Plasma; experiment: Anticoagulant activity in citrated human plasma assessed as prolongation of activated partial thromboplastin time at 1 uM incubated for 3 mins by aPTT reagent based automated coagulometric analysis relative to control; type: functional; conditions: 0.05 h

Structure (SMILES)	Activity
COc1cn(Cc2cccc(-c3ccc4[nH]ncc4c3)c2)c(=O)cc1-c1cc(Cl)ccc1-n1cnnn1	38.7%
COc1cn(Cc2ccc(F)c(-c3ccc(N)nc3)c2)c(=O)cc1-c1cc(Cl)ccc1-n1cnnn1	128.5%
COc1cn(Cc2cccc(-c3ccc(N)nc3F)c2)c(=O)cc1-c1cc(Cl)ccc1-n1cnnn1	103.4%
COc1cn(Cc2cccc(-c3ccc(O)cc3)c2)c(=O)cc1-c1cc(Cl)ccc1-n1cnnn1	26.6%
COc1cn(Cc2ccc(F)c(-c3ccncc3)c2)c(=O)cc1-c1cc(Cl)ccc1-n1cc(Cl)nn1	74.7%
COc1cn(Cc2cccc(-c3ccc(NC(C)=O)cc3)c2)c(=O)cc1-c1cc(Cl)ccc1-n1cnnn1	50.8%
COc1cn(Cc2ccc(F)c(-c3ccc(N)nc3)c2)c(=O)cc1-c1cc(Cl)ccc1-n1cc(Cl)nn1	55.4%
COc1ccc(Cn2cc(OC)c(-c3cc(Cl)ccc3-n3cnnn3)cc2=O)cc1-c1ccncc1	70%
COc1cn(Cc2cccc(-c3ccc(C(N)=O)cc3F)c2)c(=O)cc1-c1cc(Cl)ccc1-n1cnnn1	82.8%
CC[C@H](c1cc(-c2ccc(N)nc2F)ccn1)n1cc(OC)c(-c2cc(Cl)ccc2-n2cnnn2)cc1=O	56.3%
COc1cn(Cc2ccc(F)c(-c3ccc(O)cc3)c2)c(=O)cc1-c1cc(Cl)ccc1-n1cnnn1	63.2%
COc1ccc(Cn2cc(OC)c(-c3cc(Cl)ccc3-n3cnnn3)cc2=O)cc1-c1ccc(N)nc1	50.4%
COc1cn(Cc2ccc(F)c(-c3ccc4[nH]ncc4c3)c2)c(=O)cc1-c1cc(Cl)ccc1-n1cnnn1	57.1%
COc1cn(Cc2cccc(-c3ccc(N)nc3)c2)c(=O)cc1-c1cc(Cl)ccc1-n1cnnn1	143.3%
COc1cn(Cc2ccc(F)c(-c3ccc(C(N)=O)cc3F)c2)c(=O)cc1-c1cc(Cl)ccc1-n1cnnn1	47%
CCC(c1cc(-c2ccc(N)nc2F)ccn1)n1cc(OC)c(-c2cc(Cl)ccc2-n2cnnn2)cc1=O (racemic)	97.2%
COc1cn(Cc2ccnc(-c3ccc(N)nc3)c2)c(=O)cc1-c1cc(Cl)ccc1-n1cnnn1	112.5%
COc1cn(C(C)c2ccc(F)c(-c3ccc(N)nc3)c2)c(=O)cc1-c1cc(Cl)ccc1-n1cnnn1 (centres undefined)	14.8%
CCC(c1cccc(-c2ccc(N)nc2)c1)n1cc(OC)c(-c2cc(Cl)ccc2-n2cc(Cl)nn2)cc1=O (centres undefined)	55.6%
COc1cn(Cc2ccc(F)c(-c3ccncc3)c2)c(=O)cc1-c1cc(Cl)ccc1-n1cnnn1	129.8%
COc1cn(Cc2cccc(-c3ccc(N)nc3)c2)c(=O)cc1-c1cc(Cl)ccc1-n1cc(Cl)nn1	82.8%
COc1cn(C(C)c2cccc(-c3ccncc3)c2)c(=O)cc1-c1cc(Cl)ccc1-n1cnnn1 (centres undefined)	80.1%
CNC(=O)c1ccc(-c2cccc(Cn3cc(OC)c(-c4cc(Cl)ccc4-n4cnnn4)cc3=O)c2)cc1	45.4%
COc1cn(Cc2ccnc(-c3ccncc3)c2)c(=O)cc1-c1cc(Cl)ccc1-n1cnnn1	113.1%
COc1cn(Cc2ccc(F)c(-c3ccc(NC(C)=O)cc3)c2)c(=O)cc1-c1cc(Cl)ccc1-n1cnnn1	86.8%
CNC(=O)c1ccc(-c2cc(Cn3cc(OC)c(-c4cc(Cl)ccc4-n4cnnn4)cc3=O)ccc2F)cc1	49.9%
COc1cn(Cc2cccc(-c3ccncc3)c2)c(=O)cc1-c1cc(Cl)ccc1-n1cc(Cl)nn1	78.1%
COc1cn(C(C)c2cccc(-c3ccc(N)nc3)c2)c(=O)cc1-c1cc(Cl)ccc1-n1cnnn1 (centres undefined)	74.3%

target: Coagulation factor XI (Homo sapiens, UniProt P03951); experiment: Inhibition of human FXIa using p-Glu-Pro-Arg-pNA.HCl as substrate incubated for 30 mins followed by substrate addition and measured after 60 mins by microplate reader analysis; conditions: not given
Sequence (P03951 19-387 limits assumed): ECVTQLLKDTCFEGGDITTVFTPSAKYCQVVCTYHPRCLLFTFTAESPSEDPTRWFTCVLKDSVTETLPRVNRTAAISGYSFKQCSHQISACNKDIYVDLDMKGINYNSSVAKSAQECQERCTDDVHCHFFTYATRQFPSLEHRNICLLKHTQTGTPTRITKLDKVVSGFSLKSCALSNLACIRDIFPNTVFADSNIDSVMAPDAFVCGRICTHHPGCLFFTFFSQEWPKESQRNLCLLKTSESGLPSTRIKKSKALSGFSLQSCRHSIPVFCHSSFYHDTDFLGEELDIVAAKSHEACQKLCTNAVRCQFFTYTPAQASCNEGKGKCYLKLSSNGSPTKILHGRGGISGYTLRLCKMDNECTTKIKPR
Sequence (P03951 388-625 limits assumed): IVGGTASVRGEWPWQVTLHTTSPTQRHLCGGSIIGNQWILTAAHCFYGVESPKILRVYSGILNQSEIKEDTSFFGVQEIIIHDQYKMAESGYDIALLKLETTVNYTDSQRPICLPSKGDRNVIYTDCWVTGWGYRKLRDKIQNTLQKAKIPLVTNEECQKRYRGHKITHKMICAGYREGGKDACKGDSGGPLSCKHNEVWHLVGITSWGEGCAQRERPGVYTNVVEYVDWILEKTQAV

IC50	Structure (SMILES)
4 nM	COc1cn(Cc2cccc(-c3ccc4[nH]ncc4c3)c2)c(=O)cc1-c1cc(Cl)ccc1-n1cnnn1
0.69 nM	COc1cn(Cc2ccc(F)c(-c3ccc(N)nc3)c2)c(=O)cc1-c1cc(Cl)ccc1-n1cnnn1
0.39 nM	COc1cn(Cc2cccc(-c3ccc(N)nc3F)c2)c(=O)cc1-c1cc(Cl)ccc1-n1cnnn1
> 500 nM	COc1cn(Cc2cccc(-c3ccc(N)nc3)c2)c(=O)cc1-c1cc(Cl)ccc1OC(F)F
1.7 nM	COc1cn(Cc2cccc(-c3ccc(O)cc3)c2)c(=O)cc1-c1cc(Cl)ccc1-n1cnnn1
> 500 nM	COc1cn(Cc2cccc(-c3ccncc3)c2)c(=O)cc1-c1cc(Cl)ccc1OC(F)F
15.1 nM	COc1cn(Cc2cccc(-c3ccc(F)cc3F)c2)c(=O)cc1-c1cc(Cl)ccc1-n1cnnn1
> 1000 nM	COc1cn(Cc2cccc(-c3ccc(N)nc3)c2)c(=O)cc1-c1cc(Cl)ccc1C(F)F
4.9 nM	COc1cn(Cc2ccc(F)c(-c3ccncc3)c2)c(=O)cc1-c1cc(Cl)ccc1-n1cc(Cl)nn1
6.4 nM	COc1cn(Cc2cccc(-c3ccc(NC(C)=O)cc3)c2)c(=O)cc1-c1cc(Cl)ccc1-n1cnnn1
1100 nM	COc1c[nH]c(=O)cc1-c1cc(Cl)ccc1-n1cnnn1
3.2 nM	COc1cn(Cc2ccc(F)c(-c3ccc(N)nc3)c2)c(=O)cc1-c1cc(Cl)ccc1-n1cc(Cl)nn1
2.1 nM	COc1ccc(Cn2cc(OC)c(-c3cc(Cl)ccc3-n3cnnn3)cc2=O)cc1-c1ccncc1
3 nM	COc1cn(Cc2cccc(-c3ccc(C(N)=O)cc3F)c2)c(=O)cc1-c1cc(Cl)ccc1-n1cnnn1
6.7 nM	CC[C@H](c1cc(-c2ccc(N)nc2F)ccn1)n1cc(OC)c(-c2cc(Cl)ccc2-n2cnnn2)cc1=O
1.4 nM	COc1cn(Cc2ccc(F)c(-c3ccc(O)cc3)c2)c(=O)cc1-c1cc(Cl)ccc1-n1cnnn1
11.5 nM	COc1cn(Cc2cccc(-c3cnc(N)nc3)c2)c(=O)cc1-c1cc(Cl)ccc1-n1cnnn1
129 nM	COc1ccc(-c2cccc(Cn3cc(OC)c(-c4cc(Cl)ccc4-n4cnnn4)cc3=O)c2)cc1
> 1000 nM	COc1cn(Cc2cccc(-c3ccncc3)c2)c(=O)cc1-c1cc(Cl)ccc1C(F)F
1.7 nM	COc1ccc(Cn2cc(OC)c(-c3cc(Cl)ccc3-n3cnnn3)cc2=O)cc1-c1ccc(N)nc1
1.3 nM	COc1cn(Cc2ccc(F)c(-c3ccc4[nH]ncc4c3)c2)c(=O)cc1-c1cc(Cl)ccc1-n1cnnn1

IC50	Structure (SMILES)
95.3 nM	COc1cn(Cc2cc(-c3cnc(N)nc3)ccn2)c(=O)cc1-c1cc(Cl)ccc1-n1cnnn1
0.35 nM	COc1cn(Cc2cccc(-c3ccc(N)nc3)c2)c(=O)cc1-c1cc(Cl)ccc1-n1cnnn1
4.7 nM	COc1cn(Cc2ccc(F)c(-c3ccc(C(N)=O)cc3F)c2)c(=O)cc1-c1cc(Cl)ccc1-n1cnnn1
> 500 nM	COc1cn(Cc2cccc(-c3ccc(N(C)C)cc3)c2)c(=O)cc1-c1cc(Cl)ccc1-n1cnnn1
0.39 nM	CCC(c1cc(-c2ccc(N)nc2F)ccn1)n1cc(OC)c(-c2cc(Cl)ccc2-n2cnnn2)cc1=O (racemic)
0.33 nM	COc1cn(Cc2ccnc(-c3ccc(N)nc3)c2)c(=O)cc1-c1cc(Cl)ccc1-n1cnnn1
10.1 nM	COc1cn(Cc2cccc(-c3ccc(F)cc3)c2)c(=O)cc1-c1cc(Cl)ccc1-n1cnnn1
1.4 nM	COc1cn(C(C)c2ccc(F)c(-c3ccc(N)nc3)c2)c(=O)cc1-c1cc(Cl)ccc1-n1cnnn1 (centres undefined)
203 nM	COc1cn(Cc2ccc(-c3ccc(O)cc3)cc2)c(=O)cc1-c1cc(Cl)ccc1-n1cnnn1
1.6 nM	CCC(c1cccc(-c2ccc(N)nc2)c1)n1cc(OC)c(-c2cc(Cl)ccc2-n2cc(Cl)nn2)cc1=O (centres undefined)
1.8 nM	COc1cn(Cc2ccc(F)c(-c3ccncc3)c2)c(=O)cc1-c1cc(Cl)ccc1-n1cnnn1
2.2 nM	COc1cn(Cc2cccc(-c3ccc(N)nc3)c2)c(=O)cc1-c1cc(Cl)ccc1-n1cc(Cl)nn1
2.4 nM	COc1cn(C(C)c2cccc(-c3ccncc3)c2)c(=O)cc1-c1cc(Cl)ccc1-n1cnnn1 (centres undefined)
5.9 nM	CNC(=O)c1ccc(-c2cccc(Cn3cc(OC)c(-c4cc(Cl)ccc4-n4cnnn4)cc3=O)c2)cc1
2.3 nM	COc1cn(Cc2ccnc(-c3ccncc3)c2)c(=O)cc1-c1cc(Cl)ccc1-n1cnnn1
1.9 nM	COc1cn(Cc2ccc(F)c(-c3ccc(NC(C)=O)cc3)c2)c(=O)cc1-c1cc(Cl)ccc1-n1cnnn1
39 nM	COc1cn(Cc2ccc3ccccc3c2)c(=O)cc1-c1cc(Cl)ccc1-n1cnnn1
5.2 nM	CNC(=O)c1ccc(-c2cc(Cn3cc(OC)c(-c4cc(Cl)ccc4-n4cnnn4)cc3=O)ccc2F)cc1
4.2 nM	COc1cn(Cc2cccc(-c3ccncc3)c2)c(=O)cc1-c1cc(Cl)ccc1-n1cc(Cl)nn1
0.54 nM	COc1cn(C(C)c2cccc(-c3ccc(N)nc3)c2)c(=O)cc1-c1cc(Cl)ccc1-n1cnnn1 (centres undefined)
